Reference: article doi:10.1101/116368v1 (biorxiv, 2017)

Biological target: T1, STARD1 (StAR), STARD1^S195E, residues 66-285 (Homo sapiens, UniProt P49675, S195E)
T1 sequence (P49675 66-285 S195E): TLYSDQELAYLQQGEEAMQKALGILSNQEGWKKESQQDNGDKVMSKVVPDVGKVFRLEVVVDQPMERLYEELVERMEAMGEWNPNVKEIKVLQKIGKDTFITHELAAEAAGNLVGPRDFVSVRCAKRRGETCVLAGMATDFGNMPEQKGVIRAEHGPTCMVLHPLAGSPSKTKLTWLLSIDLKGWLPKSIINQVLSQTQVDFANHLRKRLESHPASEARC
Experiment: NBD fluorescence titration, quadratic fit
Type: binding

Kd [nM] | SMILES
26 ± 8 | CC(Nc1ccc([N+](=O)[O-])c2nonc12)[C@H]1CC[C@H]2[C@@H]3CC=C4C[C@@H](O)CC[C@]4(C)[C@H]3CC[C@]12C (some centres unmarked) [20NP, 20-((NBDamino)-pregn-5-en-3-ol]
302 ± 29 | CC(C)CCC[C@@H](C)[C@H]1CC[C@H]2[C@@H]3CCC4CC(Nc5ccc([N+](=O)[O-])c6nonc56)CC[C@]4(C)[C@H]3CC[C@]12C (some centres unmarked) [3NC, 3-(NBDamino)-cholestane]
